Columns and labels:
Assay type in all cases: cell-based
human TLR8 = molecular target: T1, human TLR8 (Homo sapiens, UniProt Q9NR97); experiment: TLR8 inhibition reporter assay (HEK-Blue cells, SEAP reporter, R848 stimulation); details: HEK-Blue cells overexpressing human TLR8, SEAP reporter, R848 15.9 μM
T1 construct: host or cells: HEK-Blue cells (HEK293-derived reporter line)
T1 sequence (Q9NR97 27-1041): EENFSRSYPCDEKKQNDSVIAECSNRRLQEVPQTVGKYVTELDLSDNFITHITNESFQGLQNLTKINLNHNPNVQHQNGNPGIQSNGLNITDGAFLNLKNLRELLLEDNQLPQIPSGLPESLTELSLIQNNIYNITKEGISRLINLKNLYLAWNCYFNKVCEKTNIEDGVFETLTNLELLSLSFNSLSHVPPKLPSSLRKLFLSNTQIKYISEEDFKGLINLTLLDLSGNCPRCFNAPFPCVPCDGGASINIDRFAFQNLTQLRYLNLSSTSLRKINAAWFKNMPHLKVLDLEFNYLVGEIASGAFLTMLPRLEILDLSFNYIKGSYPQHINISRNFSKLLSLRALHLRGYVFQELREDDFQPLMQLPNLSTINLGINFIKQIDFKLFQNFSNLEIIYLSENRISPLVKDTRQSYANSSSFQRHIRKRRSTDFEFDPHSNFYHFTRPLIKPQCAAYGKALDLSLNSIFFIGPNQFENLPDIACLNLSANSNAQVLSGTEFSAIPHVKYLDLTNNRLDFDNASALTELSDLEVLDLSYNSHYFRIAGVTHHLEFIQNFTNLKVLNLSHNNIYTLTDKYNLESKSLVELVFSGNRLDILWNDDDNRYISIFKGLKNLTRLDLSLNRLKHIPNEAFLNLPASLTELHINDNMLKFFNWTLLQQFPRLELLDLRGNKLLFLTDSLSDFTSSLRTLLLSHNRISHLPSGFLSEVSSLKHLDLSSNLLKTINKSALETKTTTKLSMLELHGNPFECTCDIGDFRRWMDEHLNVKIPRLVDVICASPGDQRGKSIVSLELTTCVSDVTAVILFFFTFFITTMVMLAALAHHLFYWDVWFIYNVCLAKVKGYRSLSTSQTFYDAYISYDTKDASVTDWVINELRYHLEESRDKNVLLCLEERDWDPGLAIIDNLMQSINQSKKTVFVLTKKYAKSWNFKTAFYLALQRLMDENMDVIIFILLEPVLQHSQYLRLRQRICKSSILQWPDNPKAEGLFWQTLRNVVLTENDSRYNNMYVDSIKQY
How it was run: (§1)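 Read-out is SEAP activity in HEK-Blue detection medium after 22 h at 37 °C, converted to percent inhibition against agonist-plus-DMSO and reference-inhibitor controls. Cells saw compound (0.05 nM–50 μM, 30 min, room temperature) before gardiquimod 7.5 μM, R848 15.9 μM or ODN2006 5 nM for TLR7, TLR8 and TLR9, respectively.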

human TLR7 = molecular target: T2, human TLR7 (Homo sapiens, UniProt Q9NYK1); experiment: TLR7 inhibition reporter assay (HEK-Blue cells, SEAP reporter, gardiquimod stimulation); details: HEK-Blue cells overexpressing human TLR7, SEAP reporter, gardiquimod 7.5 μM
T2 construct: host or cells: HEK-Blue cells (HEK293-derived reporter line)
T2 sequence (Q9NYK1 27-1049): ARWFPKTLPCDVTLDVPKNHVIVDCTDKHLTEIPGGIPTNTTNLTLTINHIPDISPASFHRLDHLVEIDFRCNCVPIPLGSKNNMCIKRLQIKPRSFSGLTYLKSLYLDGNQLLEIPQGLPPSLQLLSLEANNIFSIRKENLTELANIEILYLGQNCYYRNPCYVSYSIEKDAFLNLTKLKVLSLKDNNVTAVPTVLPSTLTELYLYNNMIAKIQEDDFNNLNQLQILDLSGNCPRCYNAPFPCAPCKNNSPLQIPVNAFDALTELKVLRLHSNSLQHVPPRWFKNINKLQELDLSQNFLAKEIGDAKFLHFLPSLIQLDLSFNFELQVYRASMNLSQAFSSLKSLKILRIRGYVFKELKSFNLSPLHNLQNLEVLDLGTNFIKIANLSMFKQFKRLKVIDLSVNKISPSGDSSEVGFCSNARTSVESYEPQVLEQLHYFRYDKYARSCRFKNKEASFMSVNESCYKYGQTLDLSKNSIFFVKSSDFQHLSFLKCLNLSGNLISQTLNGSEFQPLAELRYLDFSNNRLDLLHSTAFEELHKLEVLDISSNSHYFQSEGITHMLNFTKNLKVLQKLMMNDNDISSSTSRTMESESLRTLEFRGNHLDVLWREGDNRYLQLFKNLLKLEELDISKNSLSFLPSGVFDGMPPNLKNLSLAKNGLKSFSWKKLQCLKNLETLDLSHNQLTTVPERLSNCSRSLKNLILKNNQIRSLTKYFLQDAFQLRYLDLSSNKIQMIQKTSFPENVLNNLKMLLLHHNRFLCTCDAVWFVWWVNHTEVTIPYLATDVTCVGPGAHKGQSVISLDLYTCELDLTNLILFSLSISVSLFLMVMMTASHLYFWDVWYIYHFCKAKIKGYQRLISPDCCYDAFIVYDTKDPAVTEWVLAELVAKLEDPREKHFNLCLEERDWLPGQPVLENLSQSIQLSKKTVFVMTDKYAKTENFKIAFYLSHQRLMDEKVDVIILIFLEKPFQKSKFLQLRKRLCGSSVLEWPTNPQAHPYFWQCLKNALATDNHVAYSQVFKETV
How it was run: as §1

human TLR9 = molecular target: T3, human TLR9 (Homo sapiens, UniProt Q9NR96); experiment: TLR9 inhibition reporter assay (HEK-Blue cells, SEAP reporter, ODN2006 stimulation); details: HEK-Blue cells overexpressing human TLR9, SEAP reporter, ODN2006 5 nM
T3 construct: host or cells: HEK-Blue cells (HEK293-derived reporter line)
T3 sequence (Q9NR96 26-1032): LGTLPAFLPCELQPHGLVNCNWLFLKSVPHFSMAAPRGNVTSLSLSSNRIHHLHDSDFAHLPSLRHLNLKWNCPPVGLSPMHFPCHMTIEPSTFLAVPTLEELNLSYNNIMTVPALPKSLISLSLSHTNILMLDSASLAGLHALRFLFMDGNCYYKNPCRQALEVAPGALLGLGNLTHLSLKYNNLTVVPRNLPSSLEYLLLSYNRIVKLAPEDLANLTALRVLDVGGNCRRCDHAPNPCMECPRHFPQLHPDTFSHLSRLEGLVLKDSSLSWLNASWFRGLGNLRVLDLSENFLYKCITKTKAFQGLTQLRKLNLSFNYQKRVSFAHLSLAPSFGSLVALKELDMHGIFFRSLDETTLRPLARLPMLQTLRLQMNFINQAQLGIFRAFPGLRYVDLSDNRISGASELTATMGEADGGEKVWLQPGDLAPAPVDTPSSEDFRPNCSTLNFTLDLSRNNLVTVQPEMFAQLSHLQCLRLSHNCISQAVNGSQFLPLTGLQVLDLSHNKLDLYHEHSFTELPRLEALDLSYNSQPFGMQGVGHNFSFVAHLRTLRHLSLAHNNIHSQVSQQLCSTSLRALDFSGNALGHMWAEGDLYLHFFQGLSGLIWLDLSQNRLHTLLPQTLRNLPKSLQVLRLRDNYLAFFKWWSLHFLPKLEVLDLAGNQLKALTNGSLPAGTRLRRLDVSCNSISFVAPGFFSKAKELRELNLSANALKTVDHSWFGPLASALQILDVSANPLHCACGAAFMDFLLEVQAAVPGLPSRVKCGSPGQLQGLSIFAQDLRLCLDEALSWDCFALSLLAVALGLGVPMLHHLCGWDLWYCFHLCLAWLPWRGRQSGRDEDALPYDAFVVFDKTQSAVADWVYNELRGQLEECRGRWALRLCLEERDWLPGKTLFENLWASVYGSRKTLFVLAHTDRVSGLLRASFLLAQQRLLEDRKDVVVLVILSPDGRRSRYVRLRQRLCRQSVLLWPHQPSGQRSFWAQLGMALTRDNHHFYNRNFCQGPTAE
How it was run: as §1

IC50 (human TLR8) [nM] | IC50 (human TLR7) [nM] | IC50 (human TLR9) [nM] | Structure (SMILES)
< 100 | 100 to 1000 | 1000 to 50000 | CCc1c(-c2ccnc3[nH]ncc23)[nH]c2ccc(C3CCN(Cc4cc(C)n[nH]4)CC3)cc12 [Example 900, 4-(3-ethyl-5-(1-((3-methyl-1H-pyrazol-5-yl)methyl)piperidin-4-yl)-1H-indol-2-yl)-1H-pyrazolo[3,4-b]pyridine]
< 100 | < 100 | 1000 to 50000 | Cc1c(-c2[nH]c3ccc(C4CCN(C5COC5)CC4)cc3c2C(C)C)cn2nnnc2c1C [Example 739, 6-(3-isopropyl-5-(1-(oxetan-3-yl)piperidin-4-yl)-1H-indol-2-yl)-7,8-dimethyltetrazolo[1,5-a]pyridine]
100 to 1000 | < 100 | 1000 to 50000 | CC(C)c1c(-c2ccn3cnnc3c2)[nH]c2ccc(C3CCN(C4COC4)CC3)cc12 [Example 736, 7-(3-isopropyl-5-(1-(oxetan-3-yl)piperidin-4-yl)-1H-indol-2-yl)-[1,2,4]triazolo[4,3-a]pyridine]
< 100 | < 100 | 1000 to 50000 | Cc1cc2nnnn2cc1-c1[nH]c2ccc(C3CCN(C4CCOCC4)CC3)cc2c1C(C)C [Example 699, 6-(3-isopropyl-5-(1-(tetrahydro-2H-pyran-4-yl)piperidin-4-yl)-1H-indol-2-yl)-7-methyltetrazolo[1,5-a]pyridine]
< 100 | < 100 | 1000 to 50000 | Cc1ncc(CN2CCC(c3ccc4[nH]c(-c5cn(C)c6ncccc56)c(C(C)C)c4c3)CC2)cn1 [Example 876, 3-(3-isopropyl-5-(1-((2-methylpyrimidin-5-yl)methyl)piperidin-4-yl)-1H-indol-2-yl)-1-methyl-1H-pyrrolo[2,3-b]pyridine]
< 100 | < 100 | 1000 to 50000 | Cc1ccc(-c2[nH]c3ccc(C4CCN(CC(C)(C)O)CC4)cc3c2C(C)C)c2ncnn12 [Example 769, 1-(4-(3-isopropyl-2-(5-methyl-[1,2,4]triazolo[1,5-a]pyridin-8-yl)-1H-indol-5-yl)piperidin-1-yl)-2-methylpropan-2-ol]

Further lines, the compound ahead of its results:

Structure (SMILES) | IC50 (human TLR8) [nM] | IC50 (human TLR7) [nM] | IC50 (human TLR9) [nM]
Cc1cc(-c2[nH]c3ccc(C4CCN(C(=O)CN(C)C)CC4)cc3c2C(C)C)cn2ccnc12 [Example 528, 2-(dimethylamino)-1-(4-(3-isopropyl-2-(8-methylimidazo[1,2-a]pyridin-6-yl)-1H-indol-5-yl)piperidin-1-yl)ethan-1-one] | < 100 | < 100 | 100 to 1000
Cc1c(-c2[nH]c3ccc(C4CCN(CC(=O)N(C)C)CC4)cc3c2C(C)C)nn2ncnc2c1C [Example 280, 2-(4-(2-(7,8-dimethyl-[1,2,4]triazolo[1,5-b]pyridazin-6-yl)-3-isopropyl-1H-indol-5-yl)piperidin-1-yl)-N,N-dimethylacetamide] | < 100 | < 100 | 1000 to 50000
CN(C)C(=O)CN1CCC(c2ccc3[nH]c(-c4cc(F)c5nccn5c4)c(CC(F)F)c3c2)CC1 [Example 409, 2-(4-(3-(2,2-difluoroethyl)-2-(8-fluoroimidazo[1,2-a]pyridin-6-yl)-1H-indol-5-yl)piperidin-1-yl)-N,N-dimethylacetamide] | 100 to 1000 | < 100 | 1000 to 50000
CC(C)c1c(-c2cccn3ncnc23)[nH]c2ccc(C3CCN(CC(=O)N(C)C)CC3)cc12 [Example 362, 2-(4-(2-5 ([1,2,4]triazolo[1,5-a]pyridin-8-yl)-3-isopropyl-1H-indol-5-yl)piperidin-1-yl)-N,N-dimethylacetamide] | 100 to 1000 | 100 to 1000 | 1000 to 50000
CC(C)c1c(-c2ccc3[nH]c(=O)oc3c2)[nH]c2ccc(C3CCNCC3)cc12 [Example 10, 6-(3-isopropyl-5-(piperidin-4-yl)-1H-indol-2-yl)benzo[d]oxazol-2(3H)-one] | < 100 | < 100 | 100 to 1000
Cc1cc(-c2[nH]c3ccc(C4CCN(C(=O)CN(C)C(C)C)CC4)cc3c2C(C)C)cn2nnnc12 [Example 480, 2-(isopropyl(methyl)amino)-1-(4-(3-isopropyl-2-(8-methyltetrazolo[1,5-a]pyridin-6-yl)-1H-indol-5-yl)piperidin-1-yl)ethan-1-one] | < 100 | < 100 | 1000 to 50000
CNC(=O)CN1CCC(c2ccc3[nH]c(-c4ccn5nc(C)nc5c4)c(C(C)C)c3c2)CC1 [Example 331, 2-(4-(3-isopropyl-2-(2-methyl-[1,2,4]triazolo[1,5-a]pyridin-7-yl)-1H-indol-5-yl)piperidin-1-yl)-N-methylacetamide] | 1000 to 50000 | < 100 | 1000 to 50000
Cc1cc2nccn2cc1-c1[nH]c2ccc(C3CCN(C4CCOCC4)CC3)cc2c1C(C)C [Example 693, 6-(3-isopropyl-5-(1-(tetrahydro-2H-pyran-4-yl)piperidin-4-yl)-1H-indol-2-yl)-7-methylimidazo[1,2-a]pyridine] | < 100 | < 100 | 100 to 1000

— patent US11739098B2 (BRISTOL-MYERS SQUIBB COMPANY, priority 2017, dated 2023)
